Laboratory results as given in patent US20170015666A1, “ENHANCER OF ZESTE HOMOLOG 2 INHIBITORS” (GLAXOSMITHKLINE INTELLECTUAL PROPERTY (NO.2) LIMITED, priority 2014, published 2017).

These molecules were tested against T1, EZH2 within the PRC2 complex (Homo sapiens, UniProt Q15910) (assay: EZH2 methyltransferase scintillation proximity assay (SPA) with PRC2 complex). Conditions: 3H-SAM, HeLa mononucleosome substrate, 30 min preincubation, 1 hour reaction.
T1 construct: FLAG; made in house; host or cells: Sf9 cells
T1 sequence (Q15910 whole entry): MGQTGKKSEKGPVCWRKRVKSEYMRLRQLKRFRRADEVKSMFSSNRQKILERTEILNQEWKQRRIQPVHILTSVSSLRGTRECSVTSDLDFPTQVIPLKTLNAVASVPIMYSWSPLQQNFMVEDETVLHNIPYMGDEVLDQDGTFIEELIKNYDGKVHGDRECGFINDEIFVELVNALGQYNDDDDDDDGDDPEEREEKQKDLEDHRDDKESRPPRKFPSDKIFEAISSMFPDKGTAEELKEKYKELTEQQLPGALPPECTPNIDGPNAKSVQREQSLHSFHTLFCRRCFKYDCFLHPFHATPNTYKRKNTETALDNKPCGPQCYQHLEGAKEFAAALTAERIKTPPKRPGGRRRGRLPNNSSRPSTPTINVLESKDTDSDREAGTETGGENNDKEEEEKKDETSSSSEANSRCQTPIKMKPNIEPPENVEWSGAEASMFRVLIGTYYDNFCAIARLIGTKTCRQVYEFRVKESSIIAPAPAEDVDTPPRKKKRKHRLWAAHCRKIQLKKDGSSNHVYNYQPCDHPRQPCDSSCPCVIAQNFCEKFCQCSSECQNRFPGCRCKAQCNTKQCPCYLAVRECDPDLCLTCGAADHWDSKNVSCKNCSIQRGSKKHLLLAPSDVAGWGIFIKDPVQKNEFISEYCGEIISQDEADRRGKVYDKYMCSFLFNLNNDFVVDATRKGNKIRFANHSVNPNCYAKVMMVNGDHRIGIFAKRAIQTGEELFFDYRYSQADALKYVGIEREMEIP
T1 sequence (O75530 whole entry partner): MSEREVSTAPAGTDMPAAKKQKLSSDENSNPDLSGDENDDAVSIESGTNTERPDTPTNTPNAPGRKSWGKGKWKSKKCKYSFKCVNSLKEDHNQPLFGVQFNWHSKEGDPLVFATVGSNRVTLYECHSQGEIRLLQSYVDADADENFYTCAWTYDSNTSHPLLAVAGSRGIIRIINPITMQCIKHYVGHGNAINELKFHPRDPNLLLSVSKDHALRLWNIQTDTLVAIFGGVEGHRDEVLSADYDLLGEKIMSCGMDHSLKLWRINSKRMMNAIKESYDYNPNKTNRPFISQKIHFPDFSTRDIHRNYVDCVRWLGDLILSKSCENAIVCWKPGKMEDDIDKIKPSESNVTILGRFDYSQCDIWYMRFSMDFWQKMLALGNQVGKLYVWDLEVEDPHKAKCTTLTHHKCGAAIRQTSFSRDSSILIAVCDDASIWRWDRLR
T1 sequence (Q15022 whole entry partner): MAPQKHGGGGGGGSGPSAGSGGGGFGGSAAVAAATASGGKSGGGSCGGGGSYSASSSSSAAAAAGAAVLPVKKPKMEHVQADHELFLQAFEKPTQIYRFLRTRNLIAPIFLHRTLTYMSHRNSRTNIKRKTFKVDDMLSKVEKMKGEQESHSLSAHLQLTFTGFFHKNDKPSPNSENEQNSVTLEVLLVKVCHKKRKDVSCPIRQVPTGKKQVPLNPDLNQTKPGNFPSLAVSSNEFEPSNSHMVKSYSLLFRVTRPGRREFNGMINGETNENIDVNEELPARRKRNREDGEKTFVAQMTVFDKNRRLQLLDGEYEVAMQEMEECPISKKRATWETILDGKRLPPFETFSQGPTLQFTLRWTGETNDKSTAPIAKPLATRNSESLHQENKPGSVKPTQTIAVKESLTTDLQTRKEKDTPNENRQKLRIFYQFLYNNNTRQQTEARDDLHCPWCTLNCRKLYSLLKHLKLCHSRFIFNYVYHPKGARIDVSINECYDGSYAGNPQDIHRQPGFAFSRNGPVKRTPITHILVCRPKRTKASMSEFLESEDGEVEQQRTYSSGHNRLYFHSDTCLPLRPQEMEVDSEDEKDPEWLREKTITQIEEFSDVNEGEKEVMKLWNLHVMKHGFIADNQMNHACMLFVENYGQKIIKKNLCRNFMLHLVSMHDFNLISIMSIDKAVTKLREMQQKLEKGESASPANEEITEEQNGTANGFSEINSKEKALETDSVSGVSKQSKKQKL
T1 sequence (Q09028 whole entry partner): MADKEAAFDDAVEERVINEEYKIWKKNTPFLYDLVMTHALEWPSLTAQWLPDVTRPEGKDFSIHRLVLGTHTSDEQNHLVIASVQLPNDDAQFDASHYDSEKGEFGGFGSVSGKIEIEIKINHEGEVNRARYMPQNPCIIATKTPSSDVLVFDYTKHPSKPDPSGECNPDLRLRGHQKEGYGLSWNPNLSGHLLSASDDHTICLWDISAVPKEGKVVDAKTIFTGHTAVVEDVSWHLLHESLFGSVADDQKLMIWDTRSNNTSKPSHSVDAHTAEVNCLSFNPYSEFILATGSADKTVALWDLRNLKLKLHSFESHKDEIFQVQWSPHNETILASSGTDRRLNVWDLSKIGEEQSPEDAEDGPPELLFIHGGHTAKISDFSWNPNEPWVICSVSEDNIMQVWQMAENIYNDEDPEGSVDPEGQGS
T1 sequence (Q6ZN18 whole entry partner): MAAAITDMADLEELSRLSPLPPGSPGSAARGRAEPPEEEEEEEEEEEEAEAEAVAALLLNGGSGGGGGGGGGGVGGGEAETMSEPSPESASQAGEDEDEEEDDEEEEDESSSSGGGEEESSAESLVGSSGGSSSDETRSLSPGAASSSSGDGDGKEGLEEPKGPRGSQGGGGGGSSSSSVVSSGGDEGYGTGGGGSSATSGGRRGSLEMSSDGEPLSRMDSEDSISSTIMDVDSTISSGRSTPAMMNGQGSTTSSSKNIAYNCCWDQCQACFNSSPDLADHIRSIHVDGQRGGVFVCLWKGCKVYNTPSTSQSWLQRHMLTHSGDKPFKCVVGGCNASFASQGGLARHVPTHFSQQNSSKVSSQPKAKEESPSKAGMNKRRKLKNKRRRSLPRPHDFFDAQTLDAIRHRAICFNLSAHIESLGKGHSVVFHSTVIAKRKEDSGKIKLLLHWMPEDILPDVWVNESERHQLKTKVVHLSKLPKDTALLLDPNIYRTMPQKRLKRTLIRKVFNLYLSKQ
Type: biochemical
Work on `Cc1cc2c(c(=O)[nH]1)CNC(=O)c1cc(-c3ccc(N4CCNCC4)nc3)cc3c1c(cn3C(C)C)C/C=C/CC2` [Example 4, (E)-4-isopropyl-12-methyl-2-(6-(piperazin-1-yl)pyridin-3-yl)-9,10,15,16-tetrahydro-4H-pyrido[4′,3′:11,12][1]azacyclotridecino[5,4,3-cd]indole-14,17(6H,13H)-dione] yielded an IC50 of 32 nM. `Cc1cc2c(c(=O)[nH]1)CNC(=O)c1cc(Cl)cc3c1c(cn3C(C)C)C/C=C\CC2` [Example 2, (Z)-2-chloro-4-isopropyl-12-methyl-9,10,15,16-tetrahydro-4H-pyrido[4′,3′:11,12][1]azacyclotridecino[5,4,3-cd]indole-14,17(6H,13H)-dione] was tested, and the IC50 was 316 nM. `Cc1cc2c(c(=O)[nH]1)CNC(=O)c1cc(C#CC(C)(C)O)cc3c1c(cn3C(C)C)C/C=C/CC2` [Example 6, (E)-2-(3-hydroxy-3-methylbut-1-yn-1-yl)-4-isopropyl-12-methyl-9,10,15,16-tetrahydro-4H-pyrido[4′,3′:11,12][1]azacyclotridecino[5,4,3-cd]indole-14,17(6H,13H)-dione] was tested, and the IC50 was 200 nM. Molecule `Cc1cc2c(c(=O)[nH]1)CNC(=O)c1cc(C#N)cc3c1c(cn3C(C)C)C/C=C/CC2` [Example 5, (E)-4-isopropyl-12-methyl-14,17-dioxo-6,9,10,13,14,15,16,17-octahydro-4H-pyrido[4′,3′:11,12][1]azacyclotridecino[5,4,3-cd]indole-2-carbonitrile] has an IC50 of 158 nM. In the case of `Cc1cc2c(c(=O)[nH]1)CNC(=O)c1cc(Cl)cc3c1c(cn3C(C)C)CCCCC2` [Example 3, 2-chloro-4-isopropyl-12-methyl-7,8,9,10,15,16-hexahydro-4H-pyrido[4′,3′:11,12][1]azacyclotridecino[5,4,3-cd]indole-14,17(6H,13H)-dione], the IC50 is reported as 500 nM. In the case of `Cc1cc2c(c(=O)[nH]1)CNC(=O)c1cc(Cl)cc3c1c(cn3C(C)C)C/C=C/CC2` [Example 1, (E)-2-chloro-4-isopropyl-12-methyl-9,10,15,16-tetrahydro-4H-pyrido[4′,3′:11,12][1]azacyclotridecino[5,4,3-cd]indole-14,17(6H,13H)-dione], the IC50 is reported as 40 nM.
